Patent US20040033483A1, “Cell diagnosing method, and device and apparatus use for it” (priority 2001, published 2004)

What was measured:
[1] = system: cancer cells prepared from the fundus of rat stomach; assay: Electrical signal of cells on the cell diagnosis device on applying Carbachol, cancer cells; type: cell-based
Protocol: (§1) A cell diagnosis apparatus comprising the device shown in FIG. 3 as a measuring section (signal source) 101, which has a configuration shown in FIG. 4, was used. Normal cells and cancer cells were prepared as samples from the fundus of rat stomach. The apparatus was used to measure the action of a chemical substance, Carbachol, on these samples.
(§2) Carbachol is a chemical substance known as an analog of the neurotransmitter Acetylcholine. Carbachol (manufactured by Sigma) was dissolved in Krebs Ringer solution to concentrations of 0, 0.1, 0.3, 1, 3 10, 30 and 100 μM. The solutions having these concentrations were used to measure an electrical signal when each solution was applied to the normal cells and the cancer cells derived from the fundus of stomach. For each Carbachol concentration, time-series signal values for 10 seconds were obtained from the measuring section (signal source) 101 comprising the cell diagnosis device shown in FIG. 3, and was sampled at intervals of 100 msec to obtain time-series data, and the standard deviation of the sampling data was calculated. The average of the standard deviation was plotted in FIG. 8. In FIG. 8, black circles indicate results obtained from cells including cancer cells and white circles indicate results obtain from normal cells.
The apparatus having the configuration shown in FIG. 5, which comprises the device shown in FIG. 3 as a measuring section (signal source), was used to measure the action of Carbachol on samples, where the samples were normal cells and cells including cancer cells prepared from the fundus of rat stomach, as in Example 1.
(§3) Before and after 50 μM-concentration Carbachol was applied to the normal cells and the cancer cells prepared from the fundus of rat stomach, signals were obtained from the measuring section (signal source) 101, and the standard deviation of the signals was calculated in a manner similar to that of Example 1.

[2] = system: normal cells prepared from the fundus of rat stomach; assay: Electrical signal of cells on the cell diagnosis device on applying Carbachol, normal cells; type: cell-based
Protocol: as §1
as §2, with “The average of the standard deviation was plotted in FIG. 8. In FIG. 8, black circles indicate results obtained from cells including cancer cells and white circles indicate results obtain from normal cells.” left out
as §3

[3] = 50 μM Carbachol, before versus after application, 10 seconds, FIG. 9
[4] = Carbachol 0, 0.1, 0.3, 1, 3, 10, 30 and 100 μM in Krebs Ringer solution, 10 seconds signal, FIG. 8

Structure (SMILES): C[N+](C)(C)CCOC(N)=O [Carbachol]
- average and half-width of the normal distribution of standard deviations compared with the normal cell ([1]; 50 μM Carbachol, FIG. 9): larger average and half-width values than those of the normal cell
- average of the standard deviation every 5 msec after applying Carbachol [1, 3]: increased
- average of the standard deviation of the electrical signal at 100 msec intervals [1, 4]: the higher the Carbachol concentration, the higher the average of the standard deviation
- average of the standard deviation every 5 msec after applying Carbachol [2, 3]: increased
- average of the standard deviation of the electrical signal at 100 msec intervals [2, 4]: the higher the Carbachol concentration, the higher the average of the standard deviation
